Laboratory results from PMC10211317, “Identification of ARUK2002821 as an isoform-selective PI5P4Kα inhibitor” (RSC Medicinal Chemistry, 2023).

Assays:
Assay in all cases: Premier Screen kinase panel (MRC PPU)
Format in all cases: biochemical
IKKe = IKKe (Homo sapiens, UniProt Q14164); settings: IKKe (Entrez IKBKE), read-out: Residual activity (%)
Description: (§1) room temperature with shaking for 30 minutes. The kinase concentration in the eluates was measured by qPCR.
(§2) using ADP-GloTM assay at the MRC PPU International Centre for Kinase Profiling, University of Dundee.
(§3) Conducted by MRC PPU International Centre
(§4) Conducted by MRC PPU International Centre for […]

ZAP70 = ZAP70 (Homo sapiens, UniProt P43403); settings: ZAP70 (Entrez ZAP70), read-out: Residual activity (%)
Sequence of ZAP70 (P43403 whole entry): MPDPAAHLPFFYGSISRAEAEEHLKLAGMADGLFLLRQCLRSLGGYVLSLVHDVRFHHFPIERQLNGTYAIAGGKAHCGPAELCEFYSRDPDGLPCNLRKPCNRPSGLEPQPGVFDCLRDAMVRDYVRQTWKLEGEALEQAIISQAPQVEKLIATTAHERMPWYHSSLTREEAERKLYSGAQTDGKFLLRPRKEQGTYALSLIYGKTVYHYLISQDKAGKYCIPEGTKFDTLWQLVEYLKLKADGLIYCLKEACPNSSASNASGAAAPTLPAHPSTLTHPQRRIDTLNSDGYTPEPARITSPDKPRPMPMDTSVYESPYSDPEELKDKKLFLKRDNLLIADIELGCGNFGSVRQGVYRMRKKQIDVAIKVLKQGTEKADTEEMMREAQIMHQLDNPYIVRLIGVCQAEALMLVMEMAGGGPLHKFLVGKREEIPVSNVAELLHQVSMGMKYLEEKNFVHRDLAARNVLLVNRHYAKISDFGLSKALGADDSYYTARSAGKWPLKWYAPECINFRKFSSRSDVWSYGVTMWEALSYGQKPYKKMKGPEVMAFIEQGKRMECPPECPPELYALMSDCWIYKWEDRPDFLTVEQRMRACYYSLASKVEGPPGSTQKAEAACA
Description: as §1, §2, §3, §4

JNK3 = JNK3 (Homo sapiens, UniProt P53779); settings: JNK3 (Entrez MAPK10), read-out: Residual activity (%)
Sequence of JNK3 (P53779 whole entry): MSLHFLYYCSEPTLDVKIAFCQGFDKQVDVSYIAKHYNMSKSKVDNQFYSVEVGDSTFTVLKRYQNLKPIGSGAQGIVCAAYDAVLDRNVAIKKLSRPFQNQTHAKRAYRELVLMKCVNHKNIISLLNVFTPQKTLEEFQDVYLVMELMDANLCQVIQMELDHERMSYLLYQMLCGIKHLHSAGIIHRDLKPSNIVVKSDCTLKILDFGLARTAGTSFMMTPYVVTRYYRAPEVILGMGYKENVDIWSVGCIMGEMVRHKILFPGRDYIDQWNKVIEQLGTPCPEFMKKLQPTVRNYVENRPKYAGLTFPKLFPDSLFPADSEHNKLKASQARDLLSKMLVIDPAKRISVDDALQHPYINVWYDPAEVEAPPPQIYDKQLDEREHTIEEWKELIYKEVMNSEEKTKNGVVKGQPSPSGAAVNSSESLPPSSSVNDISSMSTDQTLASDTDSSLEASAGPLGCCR
Description: as §1, §2, §3, §4

MST2 = MST2 (Homo sapiens, UniProt Q13188); settings: MST2 (Entrez STK3), read-out: Residual activity (%)
Description: as §1, §2, §3, §4

PAK2 = PAK2 (Homo sapiens, UniProt Q13177); settings: PAK2 (Entrez PAK2), read-out: Residual activity (%)
Description: as §1, §2, §3, §4

OSR1 = OSR1 (Homo sapiens, UniProt O95747); settings: OSR1 (Entrez OXSR1), read-out: Residual activity (%)
Description: as §1, §2, §3, §4

TTBK2 = TTBK2 (Homo sapiens, UniProt Q6IQ55); settings: TTBK2 (Entrez TTBK2), read-out: Residual activity (%)
Description: as §1, §2, §3, §4

Lck = Lck (Homo sapiens, UniProt P06239); settings: Lck (Entrez LCK), read-out: Residual activity (%)
Description: as §1, §2, §3, §4

IRAK4 = IRAK4 (Homo sapiens, UniProt Q9NWZ3); settings: IRAK4 (Entrez IRAK4), read-out: Residual activity (%)
Sequence of IRAK4 (Q9NWZ3 whole entry): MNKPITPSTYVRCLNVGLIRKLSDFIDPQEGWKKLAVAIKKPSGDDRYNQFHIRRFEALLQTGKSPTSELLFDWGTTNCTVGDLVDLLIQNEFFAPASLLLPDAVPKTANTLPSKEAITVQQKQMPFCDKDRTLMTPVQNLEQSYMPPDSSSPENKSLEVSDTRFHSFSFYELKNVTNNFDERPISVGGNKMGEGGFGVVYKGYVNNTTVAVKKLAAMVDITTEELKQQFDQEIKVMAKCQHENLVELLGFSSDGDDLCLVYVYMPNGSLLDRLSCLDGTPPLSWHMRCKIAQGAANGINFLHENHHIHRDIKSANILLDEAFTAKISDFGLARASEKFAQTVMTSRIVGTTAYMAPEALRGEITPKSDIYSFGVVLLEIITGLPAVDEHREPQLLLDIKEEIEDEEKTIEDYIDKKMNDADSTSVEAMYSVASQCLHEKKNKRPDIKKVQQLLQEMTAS
Description: as §1, §2, §3, §4

HIPK3 = HIPK3 (Homo sapiens, UniProt Q9H422); settings: HIPK3 (Entrez HIPK3), read-out: Residual activity (%)
Description: as §1, §2, §3, §4

PKBb = PKBb (Homo sapiens, UniProt P31751); settings: PKBb (Entrez AKT2), read-out: Residual activity (%)
Description: as §1, §2, §3, §4

TLK1 = TLK1 (Homo sapiens, UniProt Q9UKI8); settings: TLK1 (Entrez TLK1), read-out: Residual activity (%)
Description: as §1, §2, §3, §4

SmMLCK = SmMLCK (Homo sapiens, UniProt Q15746); settings: SmMLCK (Entrez MYLK), read-out: Residual activity (%)
Description: as §1, §2, §3, §4

TIE2 = TIE2 (Homo sapiens, UniProt Q02763); settings: TIE2 (Entrez TEK), read-out: Residual activity (%)
Description: as §1, §2, §3, §4

TAO1 = TAO1 (Homo sapiens, UniProt Q7L7X3); settings: TAO1 (Entrez TAOK1), read-out: Residual activity (%)
Sequence of TAO1 (Q7L7X3 whole entry): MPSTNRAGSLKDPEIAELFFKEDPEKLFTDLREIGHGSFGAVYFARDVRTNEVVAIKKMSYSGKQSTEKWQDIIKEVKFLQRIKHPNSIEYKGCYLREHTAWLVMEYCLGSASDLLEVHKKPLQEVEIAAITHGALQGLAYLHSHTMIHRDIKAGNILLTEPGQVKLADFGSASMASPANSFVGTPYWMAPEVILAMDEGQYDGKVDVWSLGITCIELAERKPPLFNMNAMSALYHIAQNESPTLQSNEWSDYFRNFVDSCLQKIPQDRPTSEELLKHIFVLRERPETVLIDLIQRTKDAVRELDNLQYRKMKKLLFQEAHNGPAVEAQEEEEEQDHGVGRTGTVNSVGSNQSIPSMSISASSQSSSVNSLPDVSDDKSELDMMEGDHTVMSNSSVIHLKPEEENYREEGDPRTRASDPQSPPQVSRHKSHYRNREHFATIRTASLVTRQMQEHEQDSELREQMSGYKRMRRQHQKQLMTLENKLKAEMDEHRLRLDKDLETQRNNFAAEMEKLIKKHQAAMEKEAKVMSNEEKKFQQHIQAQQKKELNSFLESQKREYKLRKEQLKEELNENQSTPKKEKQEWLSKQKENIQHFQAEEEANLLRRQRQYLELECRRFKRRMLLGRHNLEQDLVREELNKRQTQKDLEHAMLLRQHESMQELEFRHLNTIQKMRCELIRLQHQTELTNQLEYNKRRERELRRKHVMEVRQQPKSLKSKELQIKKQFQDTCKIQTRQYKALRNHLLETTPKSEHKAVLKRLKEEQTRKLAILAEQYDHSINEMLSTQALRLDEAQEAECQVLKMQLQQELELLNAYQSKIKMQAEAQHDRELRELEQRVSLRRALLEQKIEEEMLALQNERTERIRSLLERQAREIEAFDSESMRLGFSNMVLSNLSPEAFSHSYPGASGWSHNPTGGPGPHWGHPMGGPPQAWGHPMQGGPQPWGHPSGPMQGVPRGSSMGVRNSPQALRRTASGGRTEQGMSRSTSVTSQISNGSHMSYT
Description: as §1, §2, §3, §4

TSSK1 = TSSK1 (Homo sapiens, UniProt Q9BXA7); settings: TSSK1 (Entrez TSSK1B), read-out: Residual activity (%)
Description: as §1, §2, §3, §4

CK2 = CK2 (Homo sapiens, UniProt P68400); settings: CK2 (Entrez CSNK2A1), read-out: Residual activity (%)
Description: as §1, §2, §3, §4

CHK1 = CHK1 (Homo sapiens, UniProt O14757); settings: CHK1 (Entrez CHEK1), read-out: Residual activity (%)
Description: as §1, §2, §3, §4

HIPK2 = HIPK2 (Homo sapiens, UniProt Q9H2X6); settings: HIPK2 (Entrez HIPK2), read-out: Residual activity (%)
Sequence of HIPK2 (Q9H2X6 whole entry): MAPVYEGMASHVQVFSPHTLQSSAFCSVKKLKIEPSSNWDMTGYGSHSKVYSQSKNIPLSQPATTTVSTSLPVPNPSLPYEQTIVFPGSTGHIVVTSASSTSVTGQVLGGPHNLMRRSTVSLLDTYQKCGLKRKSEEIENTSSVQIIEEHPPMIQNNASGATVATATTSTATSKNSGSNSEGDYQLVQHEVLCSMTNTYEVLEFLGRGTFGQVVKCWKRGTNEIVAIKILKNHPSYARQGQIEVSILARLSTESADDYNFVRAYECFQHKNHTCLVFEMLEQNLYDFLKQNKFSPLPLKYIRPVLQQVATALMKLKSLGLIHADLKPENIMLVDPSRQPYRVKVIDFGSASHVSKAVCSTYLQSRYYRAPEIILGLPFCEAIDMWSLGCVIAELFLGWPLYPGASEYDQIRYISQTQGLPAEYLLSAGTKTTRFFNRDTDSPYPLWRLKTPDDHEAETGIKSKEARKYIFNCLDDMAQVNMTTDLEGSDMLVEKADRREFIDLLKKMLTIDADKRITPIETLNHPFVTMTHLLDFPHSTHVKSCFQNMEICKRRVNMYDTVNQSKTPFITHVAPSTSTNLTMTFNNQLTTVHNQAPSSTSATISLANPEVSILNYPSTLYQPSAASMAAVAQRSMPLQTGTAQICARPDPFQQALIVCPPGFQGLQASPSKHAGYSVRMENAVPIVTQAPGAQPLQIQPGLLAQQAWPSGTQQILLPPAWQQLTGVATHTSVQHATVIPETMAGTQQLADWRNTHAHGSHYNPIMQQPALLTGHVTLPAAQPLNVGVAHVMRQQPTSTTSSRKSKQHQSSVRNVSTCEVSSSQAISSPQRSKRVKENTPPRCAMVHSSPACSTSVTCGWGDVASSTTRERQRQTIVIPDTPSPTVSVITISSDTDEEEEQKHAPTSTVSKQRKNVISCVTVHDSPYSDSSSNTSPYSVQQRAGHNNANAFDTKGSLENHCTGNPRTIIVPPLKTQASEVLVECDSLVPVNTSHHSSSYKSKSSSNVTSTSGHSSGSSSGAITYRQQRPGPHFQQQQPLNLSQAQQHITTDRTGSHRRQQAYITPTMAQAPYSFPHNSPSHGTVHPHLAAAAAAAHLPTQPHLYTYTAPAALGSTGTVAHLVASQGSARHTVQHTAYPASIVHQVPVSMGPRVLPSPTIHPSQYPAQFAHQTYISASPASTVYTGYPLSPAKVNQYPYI
Description: as §1, §2, §3, §4

DDR2 = DDR2 (Homo sapiens, UniProt Q16832); settings: DDR2 (Entrez DDR2), read-out: Residual activity (%)
Description: as §1, §2, §3, §4

MAPKAP-K2 = MAPKAP-K2 (Homo sapiens, UniProt P49137); settings: MAPKAP-K2 (Entrez MAPKAPK2), read-out: Residual activity (%)
Sequence of MAPKAP-K2 (P49137 whole entry): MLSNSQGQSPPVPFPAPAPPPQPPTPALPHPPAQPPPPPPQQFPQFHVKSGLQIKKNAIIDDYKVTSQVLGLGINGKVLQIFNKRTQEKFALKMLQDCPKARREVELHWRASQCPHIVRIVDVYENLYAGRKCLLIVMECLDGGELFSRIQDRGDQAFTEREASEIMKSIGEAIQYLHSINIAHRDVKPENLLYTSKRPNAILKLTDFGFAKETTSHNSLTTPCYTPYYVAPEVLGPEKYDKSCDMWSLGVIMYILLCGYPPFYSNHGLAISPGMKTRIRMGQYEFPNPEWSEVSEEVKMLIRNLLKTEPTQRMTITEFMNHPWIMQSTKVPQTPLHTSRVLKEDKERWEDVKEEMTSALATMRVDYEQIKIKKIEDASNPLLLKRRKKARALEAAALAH
Description: as §1, §2, §3, §4

PDK1 = PDK1 (Homo sapiens, UniProt O15530); settings: PDK1 (Entrez PDPK1), read-out: Residual activity (%)
Description: as §1, §2, §3, §4

EPH-B1 = EPH-B1 (Homo sapiens, UniProt P54762); settings: EPH-B1 (Entrez EPHB1), read-out: Residual activity (%)
Description: as §1, §2, §3, §4

MST4 = MST4 (Homo sapiens, UniProt Q9P289); settings: MST4 (Entrez STK26), read-out: Residual activity (%)
Sequence of MST4 (Q9P289 whole entry): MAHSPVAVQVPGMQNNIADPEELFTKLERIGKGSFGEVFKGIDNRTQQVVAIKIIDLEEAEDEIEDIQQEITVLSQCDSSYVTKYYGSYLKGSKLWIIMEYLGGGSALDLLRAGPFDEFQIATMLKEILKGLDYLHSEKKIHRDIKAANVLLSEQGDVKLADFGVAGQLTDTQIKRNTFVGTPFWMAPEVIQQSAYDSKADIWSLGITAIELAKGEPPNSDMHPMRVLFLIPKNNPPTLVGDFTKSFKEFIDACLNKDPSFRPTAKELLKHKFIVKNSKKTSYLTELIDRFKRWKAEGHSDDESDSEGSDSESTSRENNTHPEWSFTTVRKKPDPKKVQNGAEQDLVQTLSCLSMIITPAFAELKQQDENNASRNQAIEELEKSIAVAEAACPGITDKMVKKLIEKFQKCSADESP
Description: as §1, §2, §3, §4

CSK = CSK (Homo sapiens, UniProt P41240); settings: CSK (Entrez CSK), read-out: Residual activity (%)
Sequence of CSK (P41240 whole entry): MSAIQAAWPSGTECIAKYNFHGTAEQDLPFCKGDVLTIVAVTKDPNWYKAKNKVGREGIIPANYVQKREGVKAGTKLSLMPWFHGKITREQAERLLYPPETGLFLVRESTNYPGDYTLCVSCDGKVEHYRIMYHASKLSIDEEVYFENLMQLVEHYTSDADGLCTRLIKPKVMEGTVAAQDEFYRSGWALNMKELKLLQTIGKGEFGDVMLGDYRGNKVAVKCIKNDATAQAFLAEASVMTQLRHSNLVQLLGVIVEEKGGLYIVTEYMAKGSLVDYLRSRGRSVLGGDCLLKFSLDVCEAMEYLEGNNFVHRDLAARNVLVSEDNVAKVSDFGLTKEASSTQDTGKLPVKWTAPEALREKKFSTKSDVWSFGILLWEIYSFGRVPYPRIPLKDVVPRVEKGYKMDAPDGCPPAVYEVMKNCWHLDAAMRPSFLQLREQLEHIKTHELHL
Description: as §1, §2, §3, §4

BTK = BTK (Homo sapiens, UniProt Q06187); settings: BTK (Entrez BTK), read-out: Residual activity (%)
Description: as §1, §2, §3, §4

TTK = TTK (Homo sapiens, UniProt P33981); settings: TTK (Entrez TTK), read-out: Residual activity (%)
Description: as §1, §2, §3, §4

MNK2 = MNK2 (Homo sapiens, UniProt Q9HBH9); settings: MNK2 (Entrez MKNK2), read-out: Residual activity (%)
Description: as §1, §2, §3, §4

MARK4 = MARK4 (Homo sapiens, UniProt Q96L34); settings: MARK4 (Entrez MARK4), read-out: Residual activity (%)
Description: as §1, §2, §3, §4

SMILES: COc1ccc(Nc2ncnc3c2ccn3-c2ccc(C)c(C)c2)cc1Cl [compound 36]
- remaining activity at 1 µM (IKKe): 89%
- remaining activity at 1 µM (ZAP70): 99%
- remaining activity at 1 µM (JNK3): 89%
- remaining activity at 1 µM (MST2): 86%
- remaining activity at 1 µM (PAK2): 99%
- remaining activity at 1 µM (OSR1): 87%
- remaining activity at 1 µM (TTBK2): 70%
- remaining activity at 1 µM (Lck): 95%
- remaining activity at 1 µM (IRAK4): 113%
- remaining activity at 1 µM (HIPK3): 76%
- remaining activity at 1 µM (PKBb): 103%
- remaining activity at 1 µM (TLK1): 96%
- remaining activity at 1 µM (SmMLCK): 99%
- remaining activity at 1 µM (TIE2): 105%
- remaining activity at 1 µM (TAO1): 111%
- remaining activity at 1 µM (TSSK1): 98%
- remaining activity at 1 µM (CK2): 97%
- remaining activity at 1 µM (CHK1): 82%
- remaining activity at 1 µM (HIPK2): 90%
- remaining activity at 1 µM (DDR2): 115%
- remaining activity at 1 µM (MAPKAP-K2): 109%
- remaining activity at 1 µM (PDK1): 133%
- remaining activity at 1 µM (EPH-B1): 126%
- remaining activity at 1 µM (MST4): 99%
- remaining activity at 1 µM (CSK): 104%
- remaining activity at 1 µM (BTK): 99%
- remaining activity at 1 µM (TTK): 87%
- remaining activity at 1 µM (MNK2): 90%
- remaining activity at 1 µM (MARK4): 76%
